Reference: patent publication US12479839B2, “Crystalline form of ATR inhibitor and use thereof” (Wuxi Biocity Biopharmaceutics Co., Ltd., priority 2019, dated 2025)

Assays:
[1] = Solid stability tests of Crystal Form B under high temperature, high humidity and light conditions; assay type: physicochemical
Description: The samples were sealed with aluminum foil paper, and some small holes were pierced in the aluminum foil paper to ensure that the sample can fully contact with the ambient air. The samples were placed in a constant temperature and humidity or light box under different humidity conditions. […] The test results were compared with the initial test results on day 0.

[2] = Solid physical stability tests of Crystal Form A under different temperature, humidity and light conditions; assay type: physicochemical; settings: Day 10, XRPD
Protocol: Four samples of Crystal Form A were weighed in parallel, each about 100 mg, placed on the bottom of a glass sample bottle and spread into a thin layer. The samples were sealed with aluminum foil paper, and some small holes were pierced in the aluminum foil paper to ensure that the sample can fully contact with the ambient air. Four prepared samples were placed in 25° C./92.5% relative humidity, 60° C., 40° C./75% and light conditions, respectively, and the physical stability of the samples on the 10th day was investigated. At the same time, a sample of about 100 mg of Crystal Form A was weighed separately, placed on the bottom of the glass sample bottle, sealed with a screw cap, and stored at −20° C. for use as control. On the 10th day, all the samples were taken out, returned to room temperature, and the appearance changes of the samples were observed. XRPD was used to detect the sample crystal forms. By comparing the accelerated samples with the control sample, the solid physical stability of Crystal Form A of the compound of formula (I) was determined.

[3] = Solid stability test of Crystal Form A under high temperature and high humidity; assay type: physicochemical; settings: 40° C./75% humidity
Protocol: Two samples of Crystal Form A were weighed in parallel, each about 100 mg, placed on the bottom of a glass sample bottle and spread into a thin layer. The samples were sealed with aluminum foil paper, and some small holes were pierced in the aluminum foil paper to ensure that the sample can fully contact with the ambient air. The samples were placed at a constant temperature and humidity box under the condition of 40° C./75% humidity. The samples under the above conditions were sampled and tested on day 30, and the test results were compared with the initial test result on day 0.

[4] = In vivo pharmacokinetic study in female Balb/c Nude mice; parameters: species or system mouse
Protocol: Experimental procedure: The purpose of this study is to determine the pharmacokinetic parameters of the compound and calculate its gavage bioavailability in female Balb/c Nude mice.
Six female Balb/c Nude mice were used in this project, three mice were injected intravenously, with the dosage of 1 mg/kg, where plasma samples at 0 h (before administration) and at 0.0833, 0.25, 0.5, 1, 2, 4, 6, 8 and 24 h after administration were collected, and the other three mice were administered intragastrically with the dose of 10 mg/kg or 25 mg/kg, where plasma samples at 0 h (before administration) and at 0.5, 1, 2, 3, 4, 6, 8, 24 h after administration were collected. LC-MS/MS analysis was performed on the collected samples and data were collected. The collected analysis data were calculated with Phoenix WinNonlin 6.2.1 software for relevant pharmacokinetic parameters.
Note: C0 (nM) is the concentration of the drug in the body at 0 min; Cl (mL/min/kg) is the clearance rate of the drug in the body; Vdss (L/kg) is the volume of distribution of the drug in the body; T1/2 (h) is the half-life; AUC0-t (nM·h) is the amount of drug exposure in the body; Cmax (nM) is the highest concentration of the drug in the body; F is the bioavailability.

With `Cc1cnn(C)c1-c1cc(N2CCOC[C@H]2C)nc(-c2cc(CO)cc3[nH]ccc23)n1` [Crystal Form B] as the compound, how does the Content ([1]; 25° C./65% RH, 3 month) read?
The Content was 98.4%.

And the “Crystal Form” value ([1]; 25° C./65% RH, 3 month)?
The value was “Crystal Form B”.

And the Total impurity ([1]; 25° C./65% RH, 3 month)?
Its Total impurity is 0.45%.

And the Content ([1]; 25° C./65% RH, 6 month)?
Its Content is 99.8%.

What about the “Crystal Form” value ([1]; 25° C./65% RH, 6 month) of the same compound?
Its value is “Crystal Form B”.

And the Total impurity ([1]; 25° C./65% RH, 6 month)?
The Total impurity was 0.43%.

And the Content ([1]; 25° C./65% RH, day 0)?
Its Content is 99.0%.

What about the “Crystal Form” value ([1]; 25° C./65% RH, day 0) of the same compound?
The value was “Crystal Form B”.

What about the Total impurity ([1]; 25° C./65% RH, day 0) of the same compound?
Its Total impurity is 0.42%.

What about the Content ([1]; 25° C./92.5% RH, day 0) of the same compound?
Its Content is 99.0%.

What about the “Crystal Form” value ([1]; 25° C./92.5% RH, day 0) of the same compound?
The value was “Crystal Form B”.

What about the Total impurity ([1]; 25° C./92.5% RH, day 0) of the same compound?
Its Total impurity is 0.42%.

And the Content ([1]; 25° C./92.5% RH, day 5)?
The Content was 98.9%.

What about the “Crystal Form” value ([1]; 25° C./92.5% RH, day 5) of the same compound?
Its value is “Crystal Form B”.

And the Total impurity ([1]; 25° C./92.5% RH, day 5)?
The Total impurity was 0.44%.

What about the Content ([1]; 25° C./92.5% RH, day 10) of the same compound?
Its Content is 100.1%.

And the “Crystal Form” value ([1]; 25° C./92.5% RH, day 10)?
Its value is “Crystal Form B”.

And the Total impurity ([1]; 25° C./92.5% RH, day 10)?
Its Total impurity is 0.41%.

And the Content ([1]; 25° C./92.5% RH, day 30)?
Its Content is 99.7%.

And the “Crystal Form” value ([1]; 25° C./92.5% RH, day 30)?
Its value is “Crystal Form B”.

What about the Total impurity ([1]; 25° C./92.5% RH, day 30) of the same compound?
The Total impurity was 0.41%.

And the Content ([1]; 40° C./75% RH, 1 month)?
Its Content is 100.6%.

What about the “Crystal Form” value ([1]; 40° C./75% RH, 1 month) of the same compound?
Its value is “Crystal Form B”.

What about the Total impurity ([1]; 40° C./75% RH, 1 month) of the same compound?
Its Total impurity is 0.45%.

And the Content ([1]; 40° C./75% RH, 2 month)?
The Content was 100.4%.

And the “Crystal Form” value ([1]; 40° C./75% RH, 2 month)?
Its value is “Crystal Form B”.

And the Total impurity ([1]; 40° C./75% RH, 2 month)?
The Total impurity was 0.42%.

And the Content ([1]; 40° C./75% RH, 3 month)?
The Content was 98.8%.

And the “Crystal Form” value ([1]; 40° C./75% RH, 3 month)?
The value was “Crystal Form B”.

What about the Total impurity ([1]; 40° C./75% RH, 3 month) of the same compound?
Its Total impurity is 0.44%.

What about the Content ([1]; 40° C./75% RH, 6 month) of the same compound?
The Content was 99.8%.

What about the “Crystal Form” value ([1]; 40° C./75% RH, 6 month) of the same compound?
The value was “Crystal Form B”.

And the Total impurity ([1]; 40° C./75% RH, 6 month)?
The Total impurity was 0.43%.

What about the Content ([1]; 40° C./75% RH, day 0) of the same compound?
The Content was 99.0%.

What about the “Crystal Form” value ([1]; 40° C./75% RH, day 0) of the same compound?
Its value is “Crystal Form B”.

And the Total impurity ([1]; 40° C./75% RH, day 0)?
The Total impurity was 0.42%.

And the Content ([1]; 60° C., day 0)?
The Content was 99.0%.

What about the “Crystal Form” value ([1]; 60° C., day 0) of the same compound?
The value was “Crystal Form B”.

And the Total impurity ([1]; 60° C., day 0)?
Its Total impurity is 0.42%.

What about the Content ([1]; 60° C., day 5) of the same compound?
Its Content is 101.5%.

What about the “Crystal Form” value ([1]; 60° C., day 5) of the same compound?
Its value is “Crystal Form B”.

And the Total impurity ([1]; 60° C., day 5)?
The Total impurity was 0.43%.

And the Content ([1]; 60° C., day 10)?
Its Content is 101.6%.

What about the “Crystal Form” value ([1]; 60° C., day 10) of the same compound?
The value was “Crystal Form B”.

What about the Total impurity ([1]; 60° C., day 10) of the same compound?
The Total impurity was 0.39%.

And the Content ([1]; 60° C., day 30)?
The Content was 99.4%.

And the “Crystal Form” value ([1]; 60° C., day 30)?
The value was “Crystal Form B”.

What about the Total impurity ([1]; 60° C., day 30) of the same compound?
The Total impurity was 0.41%.

What about the Content ([1]; light, day 0) of the same compound?
Its Content is 99.0%.

What about the “Crystal Form” value ([1]; light, day 0) of the same compound?
Its value is “Crystal Form B”.

What about the Total impurity ([1]; light, day 0) of the same compound?
Its Total impurity is 0.42%.

And the Content ([1]; light, day 5)?
Its Content is 101.0%.

What about the “Crystal Form” value ([1]; light, day 5) of the same compound?
Its value is “Crystal Form B”.

What about the Total impurity ([1]; light, day 5) of the same compound?
Its Total impurity is 0.44%.

What about the Content ([1]; light, day 10) of the same compound?
Its Content is 100.7%.

And the “Crystal Form” value ([1]; light, day 10)?
The value was “Crystal Form B”.

And the Total impurity ([1]; light, day 10)?
The Total impurity was 0.42%.

Which results are given for `Cc1cnn(C)c1-c1cc(N2CCOC[C@H]2C)nc(-c2cc(CO)cc3[nH]ccc23)n1` [Crystal Form A]?
Crystal Form ([2]; 25° C./92.5% relative humidity (open)): Form A; Crystal Form ([2]; 40° C./75% relative humidity (open)): Form A; Crystal Form ([2]; 60° C. (open)): Form A; Crystal Form ([2]; light): Form A; Crystal Form ([2]; −20° C. sealed (control)): Form A; Appearance ([3]; day 0): White; Content ([3]; day 0): 99.61%; Crystal Form ([3]; day 0): Form A; Total impurity ([3]; day 0): 0.39%; Appearance ([3]; day 30): White; Content ([3]; day 30): 99.59%; Crystal Form ([3]; day 30): Form A; Total impurity ([3]; day 30): 0.45%

What does the source list for `Cc1cnn(C)c1-c1cc(N2CCOC[C@H]2C)nc(-c2cc(CO)cc3[nH]ccc23)n1` [Compound of formula (1)]?
F ([4]; 10 mg/kg intragastric): 129.0%; AUC ([4]; mouse, plasma, 1 mg/kg IV, read-out: AUC04): 1.09 µM·h
